Results on one compound are retold here after patent US9365612B2, “Caspase inhibitors” (United States of America as represented by the Secretary, …, priority 2010, dated 2016).

Series [1] addresses T1, caspase 14 (Homo sapiens, UniProt P31944).
T1 construct: purchased Reaction Biology Corporation
T1 sequence (P31944 6-146 limits assumed): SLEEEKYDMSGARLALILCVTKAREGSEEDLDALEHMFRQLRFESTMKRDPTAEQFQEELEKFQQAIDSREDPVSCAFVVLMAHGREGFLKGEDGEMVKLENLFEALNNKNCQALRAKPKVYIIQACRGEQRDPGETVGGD
T1 sequence (P31944 153-242 limits assumed): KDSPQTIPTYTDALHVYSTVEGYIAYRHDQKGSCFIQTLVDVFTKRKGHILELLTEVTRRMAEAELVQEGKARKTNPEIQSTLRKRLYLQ
Put plainly: commercial panel of caspases (Reaction Biology Corporation), caspase 14. In kind it is biochemical. The following applies: read-out: IC50 versus caspase 14. From the text:
Having established that the compounds (3), (4) and (16) are potent inhibitors of caspase 1, the selectivity of these agents was examined. […] Wannamaker, W.; Davies, R.; Namchuk, M.; Pollard, J.; Ford, P.; Ku, G.; Decker, C.; Charifson, P.; Weber, P.; Germann, U. A.; Kuida, K.; Randle, J. C. R. J. Pharmacol. Exp. Ther. 2007, 321, 509-516. […] VRT-043198 (2b), NCGC00185682 (3), NCGC00183434 (4) and NCGC00183681 (16) were entered within a commercial panel of caspases offered by Reaction Biology Corporation. […] A particularly interesting aspect of these molecules was the high selectivity for caspase 1. […] All other activities were about the 1 μM threshold.

Series [2] is described as follows: aqueous degradation study by LCMS over 96 hours. In kind it is physicochemical. The settings on record: over 96 hours. How it is done: In order to evaluate the agent's stability profile, VX-765 (1), VRT-043198 (2b), NCGC00185682 (3), NCGC00183434 (4) and NCGC00183681 (16) were examined within an aqueous degradation study at neutral (pH 7) acidic (pH 2) and basic (pH 8) conditions. The study was conducted by monitoring the degradation of each agent by LCMS analysis at various time points over 96 hours (FIG. 8). […] This degradation was amplified in both basic and acidic conditions. Conversely, the active agent VRT-043198 (2b) was very stable in both water and acidic conditions and its degradation at pH 8 was moderate.

The target of series [3] is T2, caspase 6 (Homo sapiens, UniProt P55212).
T2 sequence (P55212 24-179 limits assumed): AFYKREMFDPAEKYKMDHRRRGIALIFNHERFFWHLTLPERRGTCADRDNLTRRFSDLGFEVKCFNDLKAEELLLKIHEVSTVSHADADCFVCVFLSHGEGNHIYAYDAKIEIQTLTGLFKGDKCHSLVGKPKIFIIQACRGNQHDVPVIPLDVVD
T2 sequence (P55212 194-293 limits assumed): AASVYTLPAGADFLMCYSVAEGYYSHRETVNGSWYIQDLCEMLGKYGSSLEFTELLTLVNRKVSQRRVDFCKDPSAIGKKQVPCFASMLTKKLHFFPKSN
The following applies: reported by Randle and coworkers (Wannamaker et al. 2007); read-out: Ki versus caspase 6; cited from earlier work.

Series [4] relates to caspases 3, 7, granzyme B, cathepsin B and tyrpsin. The following applies: reported by Randle and coworkers; cited from earlier work.

Turning to `CC(C)(C)[C@H](NC(=O)c1ccc(N)c(Cl)c1)C(=O)N1CCC[C@H]1C(=O)N[C@H](C=O)CC(=O)O` [VRT-043198 (2b), reference compound], the IC50 in series [1] was 58.5 nM. In series [2] (pH 2, LCMS), the “aqueous stability in acidic conditions (pH 2)” value is on record as “very stable”. Besides, the “aqueous stability in neutral conditions (water, pH 7)” value in series [2] (pH 7, LCMS) is “very stable”. For the same compound, the “aqueous stability in basic conditions (pH 8)” value in series [2] (pH 8, LCMS) is “moderate”. In addition, in series [3], the inhibitory constant (Ki) is 560 nM. For the same compound, the “activity versus the remaining targets” value in series [4] was “little activity”.
